Legend:
Assay type in all cases: cell-based
[1] = test system: DuPro human prostate cancer cell line; test: MTT assay, percent cell survival, DuPro; parameters: unit not given beside the values; conditions: DuPro cells, six days after drug treatment
Experimental: (§1) Polyamine- and polyamine analog-amino acid conjugates of the invention were tested for their ability to inhibit growth of various cancer cell lines. The procedures used for testing activity are similar to those used in International Patent Application WO 00/66587 and U.S. Pat. No. 5,889,061 and are described below.
(§2) Human breast cancer cell line MCF7 was grown in Richter's Improved Modified Eagle's Medium supplemented with 10% fetal bovine serum (FBS) and 2.2 g/L sodium bicarbonate. Human brain tumor cell line U251 MG-NCI was grown in Dulbecco's Modified Eagle's Medium supplemented with 10% FBS. Human lung cancer cell line A549 was grown in Ham's F-12K medium (Cellgro, Mediatech, Inc., Va.), supplemented with 10% FBS and 2 mM L-glutamine. Human colon cancer cell line HT129 was cultured in McCoy's 5A medium (Gibco, BRL, Gaithersburg, Md.) supplemented with 10% FBS. Human prostate cancer cell lines PC-3, LNCAP and DuPro were grown in RPMI 1640 Medium (Cellgro, Mediatech, Inc., Va.) supplemented with 10% FBS. […]
(§3) A conventional MTT assay was used to evaluate percent cell survival. […] A microplate reader (“EMAX”-brand, Molecular Devices, Sunnyvale, Calif.) set at 570 nm was used to determine the optical density of the cultures. Results are expressed as a ratio of the optical density in drug-treated wells to the optical density in wells treated with vehicle only.

[2] = test system: PC-3 human prostate cancer cell line; test: MTT assay, percent cell survival, PC-3; conditions: PC-3 cells, six days after drug treatment, in µM (unit assumed)
Experimental: as §1, §2, §3

[3] = test system: DU145 human prostate cancer cell line; test: MTT assay, percent cell survival, DU145; parameters: unit not given beside the values; conditions: DU145 cells, six days after drug treatment
Experimental: as §1, §2, §3

[4] = test system: LnCap human prostate cancer cell line; test: MTT assay, percent cell survival, LnCap; conditions: LnCap cells, six days after drug treatment, in µM (unit assumed)
Experimental: as §1, §2, §3

Compound: CCNCCCCNCCCCNCCCCNCCCCNC(=O)CCN [SL-11143]
- ID50 DuPro [1]: 13.75
- ID50 PC-3 [2]: >31.25
- ID50 DU145 [3]: 0.06
- ID50 LnCap [4]: 6.4

Compound: CCNCCCCNCCCCNCCCCNCCCCN(CC)C(=O)C(N)CCC(N)=O (stereo not shown) [SL-11165]
- ID50 DuPro [1]: >31.65
- ID50 PC-3 [2]: 4.1
- ID50 LnCap [4]: >31.25

Reference: patent publication US7312244B2, “Polyamine analog-amino acid conjugates useful as anticancer agents” (Cellgate, Inc., priority 1999, dated 2007)
